# Laboratory results taken from article PMC6749073 (Frontiers in Pharmacology, 2019).
# pIC50: −log10 of the molar value.
# Columns and labels:
# normal ICR mice = test: LD50 in normal ICR mice; format: in vivo; conditions: tail vein injection
# Method: (§1) After injection, the animals’ condition was monitored every day for over 1 week by an observer who was blinded to the dose and drug allocation.
# (§2) Estimates for ED50 and LD50 were calculated through nonlinear regression, data were fitted to a sigmoidal dose-response relationship in Prism (version 4.0a; GraphPad Software, Inc., San Diego, CA). The data were fitted to the equation:
# (§3) Y=Ymin+Ymax−Ymin/1+10^(LogED50−X)∗HillSlope
# (§4) where X is the logarithm of concentration, and Y is the response.
# [1] = tested on: A549, NCI-H292, NCI-H460, and LTEP-A-2 xenograft models; test: ED50 (50% reduction of xenograft tumor volume) in nude mice; format: in vivo; conditions: dose reducing xenograft tumor volume by 50%; average over A549, NCI-H292, NCI-H460, and LTEP-A-2 xenograft models
# Method: as §1, §2, §3, §4
# H292 = test: MTT cell viability assay, H292; format: cell-based, human; conditions: 48 h
# Method: (§5) Cells were seeded at a density of 1 × 10^4 cells per well in 96-well plates. The following day, these cells were washed with PBS and exposed to different concentrations of testing compounds in culture medium for 48 h. MTT solution (10 μl at 5 mg/ml) was added to each well. After 4 h of incubation at 37°C, the medium was removed, and the insoluble precipitate was dissolved in 100 μl DMSO (Sigma, St. Louis, MO, USA). The absorbance of the dissolved solution at 490 nm was measured using a microplate reader (TECAN A-5082; Megllan, Austria). Cell viability percentages were calculated by dividing the mean optical density (OD) of compound-containing wells by that of the control wells. Each experiment was replicated three times. The IC50 of testing drugs was calculated with Statistical Product and Service Solutions software (SPSS, version 16.0).
# H460 = test: MTT cell viability assay, H460; format: cell-based, human; conditions: 48 h
# Method: as §5
# A549/DDP = test: MTT cell viability assay, A549/DDP; format: cell-based, human; conditions: A549/DDP (DDP-resistant), 48 h
# Method: as §5
# H292 xenograft tumor = H292 xenograft tumor growth in nude mice; format: in vivo; conditions: 120 mg/kg, tail vein every 3 days
# Method: (§6) Cells in logarithmic growth were washed with PBS and suspended in serum-free medium. Portions of the suspension (5 × 10^6 cells in 0.1 ml/mouse) were mixed at a 3:1 ratio with Matrigel basement membrane matrix and injected subcutaneously into the mice. Following 2 weeks of growth, tumor tissues were cut into multiple 2 × 2 × 2 mm^3 pieces and implanted using a range trocar subcutaneously (s.c. injection) into the left forepaw armpit of each mouse ([Jiang et al., 2017]). Treatment with pharmacology was started when the tumors reached an average volume of 100–200 mm^3. The mice were randomly divided into six groups (n = 14/group).
# (§7) Body weight and tumor size were assessed every 3 days. Tumor size was measured using a caliper, the volumes were calculated according to the following standard formula: V = (L × W^2)/2 (V = tumor volume, L = largest diameter of tumor, W = smallest diameter of tumor). On day 25, all mice were sacrificed by cervical dislocation, and the tumors were removed and weighed.
# LTEP-A-2 xenograft tumor = LTEP-A-2 xenograft tumor growth in nude mice; format: in vivo; conditions: comparable to DDP 6 mg/kg and CBP 60 mg/kg
# [2] = Body weight and tolerability of A549 and H292 xenograft mice; format: in vivo
# Method: as §6, §7
# [3] = tested on: VEGF, p53, and Bax expression in the xenograft A549 and H292 lung tumor tissue; test: Immunohistochemistry of xenograft tumor sections; format: in vivo, mice
# Method: All tumor tissues were harvested and fixed in 4% buffered formalin. After 72 h, tumor tissues were embedded in paraffin and cut into 4 μm sections for immunohistochemistry assays. The streptavidin–biotin complex (SABC) method was used for immunohistochemical staining. Lung tissue sections from mice with no intervention were used as controls. The section slides were baked in an oven at 60°C for 1 h, washed in xylene, and hydrated in different concentrations of alcohol. Subsequently, endogenous peroxidase activity was quenched with 3% hydrogen peroxide for 10 min. To unmask the antigen, the slides were submerged in citrate buffer (0.01 M, pH 6.0) at 95°C for 5 min. The slides were blocked for 20 min with normal goat serum blocking solution. Primary antibodies were incubated at 4°C overnight. Primary antibody dilutions were as follows: 1:200 for VEGF, p53, and Bax. Immunocomplexes were visualized with 3,3′-diaminobenzidine (DAB), and the density was measured with the DP2-BSW software (Olympus, Tokyo, Japan).
smiles,measurement,setting,value
CCN(CC)CCCCC1C(=O)[O][Pt][O]C1=O.N[C@@H]1CCCC[C@H]1N.O=P(O)(O)O [Diplatin],Mice LD50,normal ICR mice,496 mg/kg
same,Mice ED50,[1],52.0 mg/kg
same,pIC50,H292,4.51
same,pIC50,H460,4.39
same,pIC50,A549/DDP,3.88
same,inhibition of H292 xenograft tumor growth,H292 xenograft tumor,65.0%
same,effect on LTEP-A-2 xenograft tumor volume and weight,LTEP-A-2 xenograft tumor,significant inhibition on xenograft tumor volume and weight
same,effect on body weight,[2]; diplatin 30 mg/kg and 60 mg/kg,no observable effects
same,reduction of body weight by day 25,"[2]; diplatin 120 mg/kg, CBP 60 mg/kg, every 3 days i.v.",14.38%
same,VEGF expression in tumor sections compared to the control,[3]; 120 mg/kg,lower expression of VEGF
same,p53 and Bax expression in the A549 and H292 tumor sections,[3]; 120 mg/kg,significantly enhanced
same,effect on p53 expression in tumor sections compared with DDP and CBP treatment,[3]; diplatin 120 mg/kg vs DDP and CBP,nearly two-fold more potent
